This passage reports inhibition results from patent publication US8304444B2, “Pyrazole carboxylic acid amides useful as microbiocides” (Syngenta Crop Protection, LLC, priority 2007, dated 2012).

Common to all, as to type: cell-based
One experiment concerns Mycosphaerella arachidis. The experiment in a line: Action against Mycosphaerella arachidis, fungal growth assay. The settings on record: 0.002% active ingredient, PDB broth, 24° C., photometric after 6-7 days. On the procedure: (§1) Action Against Mycosphaerella arachidis (Early Leaf Spot of Groundnut; Cercospora arachidicola [anamorph])—Fungal Growth Assay Conidia of the fungus from cryogenic storage are directly mixed into nutrient broth (PDB potato dextrose broth). After placing a (DMSO) solution of the test compounds (0.002% active ingredient) into a microtiter plate (96-well format) the nutrient broth containing the fungal spores is added. The test plates are incubated at 24° C. and the inhibition of growth is measured photometrically after 6-7 days. The activity of a compound is expressed as fungal growth inhibition (0=no growth inhibition, ratings of 80% to 99% mean good to very good inhibition, 100%=complete inhibition). Compounds 1.01, 1.14 and 1.15 show very good activity in this test (≦80% inhibition). Compounds 1.07 and 2.01 show good activity in this test (≦50% inhibition).

A further experiment has as its system Septoria tritici. In words: Action against Septoria tritici, fungal growth assay. The settings on record: Zymoseptoria tritici; 0.002% active ingredient, PDB broth, 24° C., photometric after 72 hrs. On the procedure: as §1, with “Septoria tritici—Fungal” for “Mycosphaerella arachidis (Early Leaf Spot of Groundnut; Cercospora arachidicola [anamorph])—Fungal”, “determined” for “measured”, “72 hrs.” for “6-7 days.”, “1.07, 1.14, 1.15, 1.76” for “1.14”, “2.01” for “1.15”, “inhibition).” for “inhibition). Compounds 1.07 and 2.01 show good activity in this test (≦50% inhibition).”

The test system of the next experiment is Monographella nivalis. The experiment in a line: Action against Monographella nivalis (snow mould), fungal growth assay. The settings on record: 0.002% active ingredient, PDB broth, 24° C., photometric after 72 hrs. On the procedure:
Action Against Monographella nivalis (Anamorph: Fusarium nivale, Microdochium nivale; Snow Mould)—Fungal Growth Assay Conidia of the fungus from cryogenic storage are directly mixed into nutrient broth (PDB potato dextrose broth). After placing a DMSO-solution of the test compounds (0.002% active ingredient) into a microtiter plate (96-well format) the nutrient broth containing the fungal spores is added. The test plates are incubated at 24° C. and the inhibition of growth is measured photometrically after 72 hrs (0=no growth inhibition, ratings of 80% to 99% mean good to very good inhibition, 100%=complete inhibition). Compounds 1.14 and 1.15 show very good activity in this test (≦80% inhibition).

In experiment [1] the test system is Pseudocercosporella herpotrichoides var. acuformis. In words: Action against Pseudocercosporella herpotrichoides var. acuformis (eyespot/cereals), fungal growth assay. The settings on record: Oculimacula yallundae; 0.002% active ingredient, PDB broth, 24° C., photometric after 72 hrs. On the procedure: as §1, with “Pseudocercosporella herpotrichoides var. acuformis (Eyespot/Cereals)—Fungal” for “Mycosphaerella arachidis (Early Leaf Spot of Groundnut; Cercospora arachidicola [anamorph])—Fungal”, “determined” for “measured”, “72 hrs.” for “6-7 days.”, “(≦30%” for “(≦80%”, “inhibition).” for “inhibition). Compounds 1.07 and 2.01 show good activity in this test (≦50% inhibition).”

Molecules are shown by their SMILES.

Turning to `COC(c1ccc(Cl)cc1Cl)C(C)NC(=O)c1cn(C)nc1C(F)F` (centres unmarked) [Compound 1.14, 3-difluoromethyl-1-methyl-1H-pyrazole-4-carboxylic acid [2-(2,4-dichlorophenyl)-2-methoxy-1-methyl-ethyl]-amide], the inhibition at 0.002 % strength in the experiment with Mycosphaerella arachidis is at most 80%; with Septoria tritici, at most 80%; in the experiment on Monographella nivalis it was at most 80%; in experiment [1] it was at most 30%.

Regarding `CONC(c1ccc(Cl)cc1Cl)C(C)NC(=O)c1cn(C)nc1C(F)F` (centres unmarked) [Compound 1.76, 3-difluoromethyl-1-methyl-1H-pyrazole-4-carboxylic acid [2-(2,4-dichlorophenyl)-2-methoxyamino-1-methyl-ethyl]-amide], in the experiment with Septoria tritici, the inhibition at 0.002 % strength is at most 80%.
